Test results reported in article PMC6468747 (Cancers, 2019).
Read-outs that look alike come from different tables or passages of the source.

Experiments:
Mnk1 = target: T1, Mnk1 (Homo sapiens, UniProt Q9BUB5); experiment: Surface plasmon resonance (OpenSPR) binding to immobilized GST-Mnk1; conditions: SPR, 1.25, 10 and 30 µM, 1:1 Langmuir model, 30 °C, scouting analysis; read-out: dissociation constant (KD)
T1 construct: incubated with recombinant full length Mnk1 proteins or cell lysates overnight at 4 °C; GST
T1 sequence (Q9BUB5 whole entry): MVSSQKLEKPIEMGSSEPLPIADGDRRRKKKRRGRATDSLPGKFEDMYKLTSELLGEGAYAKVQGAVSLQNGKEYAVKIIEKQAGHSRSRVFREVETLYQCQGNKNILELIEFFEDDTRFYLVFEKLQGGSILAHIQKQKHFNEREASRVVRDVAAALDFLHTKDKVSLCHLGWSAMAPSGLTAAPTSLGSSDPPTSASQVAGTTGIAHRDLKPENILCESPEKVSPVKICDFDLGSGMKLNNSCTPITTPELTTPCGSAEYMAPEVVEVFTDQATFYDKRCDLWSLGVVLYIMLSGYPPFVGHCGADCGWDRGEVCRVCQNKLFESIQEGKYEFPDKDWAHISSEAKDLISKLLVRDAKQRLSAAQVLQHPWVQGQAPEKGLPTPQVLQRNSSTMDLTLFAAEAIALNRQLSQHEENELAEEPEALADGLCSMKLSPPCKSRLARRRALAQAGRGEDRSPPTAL
Procedure: Purified recombinant Mnk1 protein with GST tag (2.5 µg/mL) was fixed on GST sensor chip (Nicoya) by capture-coupling, then VNLG-152R (1.25, 10 and 30 µM) were injected (flow rate of 20 µL/min) sequentially into the chamber in running buffer (PBS-T with 10% DMSO). The interaction of Mnk1 with VNLG-152R was detected by Open SPRTM (Nicoya Lifesciences, Kitchener, ON, Canada) at 30 °C. The chip was regenerated with regeneration solution (10 mM glycine-HCL) at a flow rate of 150 µL/min. The close curve fitting to the sensograms were calculated by global fitting curves (1:1 Langmuir binding model). The data was retrieved and analyzed with TraceDraw software (Kitchener, ON, Canada).

MDA-MB-231 cells = experiment: MTT cell viability with/without siMnk1 knockdown; format: cell-based, human; conditions: 5 μM
Procedure: Small interfering RNA targeting the Mnk1 (siMnk1) gene and corresponding scramble siRNA sequence (siControl) were purchased from Ambion ((Waltham, MA, USA). Briefly, 3 × 10^5 MDA-MB-231 cells were seeded into 6 cm cell culture dish (Corning®) and incubated for 24 h in for normal culture medium. Subsequently, cells were subjected to transfection with 100 nM of siMnk1 or siControl using the RNAi Human/Mouse Starter Kit (Qiagen, (Qiagen, Hilden, Germany) following the manufacturer’s instructions for 48 h. For cell growth assay experiments, transfection complex was removed after 48 h, cells were washed twice with phosphate-buffered saline and replaced with normal growth medium. Twenty-four hour later, 5 μM of VNLG-152R was added to the growth media and harvested after 24 h. Non-transfected cells were also treated with 5 μM of VNLG-152R for 24 h. Protein silencing was confirmed by immunoblot analysis.

[1] = test system: panel of 6 human TNBC cell lines; experiment: MTT cell growth assay, summary over the panel; format: cell-based; conditions: Homo sapiens, 168 h, 7 days
Procedure: Figure 3 In vitro characterization, pharmacokinetics and toxicity profile of VNLG-152R and its two enantiomers. (A) HPLC chromatograms racemic VNLG-152R (left panel) and the resolved enantiomers VNLG-152E1 and VNLG-152E2 (right panel). The conditions of HPLC procedure are presented in Supplementary Materials. (B) Table summarizing GI50 values (µM) each cell line treated with VNLG-152R and its enantiomers. TNBC cell subtypes were treated with listed compound (0.1 nmol/L–100 µmol/L) for 7 days and the GI50 values for the anti-proliferative effects of the compounds were determined from dose response curves (by a nonlinear regression analysis using Graph Pad Prism). Data represents the results from six independent experiments for each cell line. (C) Plasma concentration versus time profile after intravenous (IV, 2 mg/kg each, top panel) or oral (PO, 20 mg/kg each, bottom panel) of VNLG-152R (red), VNLG-152E1 (purple) and VNLG-152E2 (blue) to female CD1 mice. Values represent the mean plasma concentrations from three mice per time point. (D) Table of the pharmacokinetic parameters of various compounds after IV and PO dosing. AUC = area under the curve, T1/2 = elimination half-life, Cmax = maximum plasma concentration, F (%) = oral bioavailability. (E) Effects of VNLG-152R, VNLG-152E1 and VNLG-152E2 on body weight and clinical observations at chronic dose termination of study. Three different doses, i.e., 10, 25, and 50 mg/kg/day (formulated in 40% β-cyclodextrin in saline) of each compound were administered daily by oral gavage for 14 days. Each group consisted of three mice. Loss in body weight, a clinical sign of toxicity was observed during the 14 days of dosing and the maximum tolerated dose (MTD) was estimated following established procedures. Changes in body weight were scored on a scale of 0–4 as follows as described under methods. […]

[2] = 14-day oral toxicity / MTD study; parameters: species or system female athymic nude mice; conditions: female, athymic nude, mouse, in vivo; oral, 14 days, estimated; read-out: maximum tolerated dose (MTD)
Procedure: Three different doses, i.e., 10, 25, and 50 mg/kg/day (formulated in 40% β-cyclodextrin in saline) of each compound were administered daily by oral gavage for 14 days. Each group consisted of 3 mice. Their body weight kinetics (loss in body weight, a clinical sign of toxicity) was observed during the 14 days of dosing following established procedures. Changes in body weight were scored on a scale of 0–4 as follows: (1) Weight loss: (10 g = 4, 7–9 g = 3, 4–6 g = 2, 1–3 g = 1; severe = 3, moderate = 2, slight = 1, none = 0).

[3] = test system: MDA-MB-231 tumor xenografts; experiment: MDA-MB-231 cell-line derived xenograft (CDX), IP dose study; format: in vivo, athymic nude mice; conditions: for tumor growth inhibition (TGI): 5 days a week, 4 weeks
Excerpt: Female athymic nude (Jackson Laboratory, Bar Harbor, Maine, USA) 5–6 weeks of age were housed under complete aseptic conditions, fed autoclaved pellets and sterile water ad libitum. Following a week of acclimatization, approximately 1 × 10^6 MDA-MB-231 cells were inoculated into both flanks for MDA-MB-231 derived xenograft tumors. Tumor-bearing mice (tumor volume around 90–110 mm^3) were randomized into various treatment groups (5 mice in each group; compounds formulated in vehicle) and treated as follows: (i) vehicle control (40% β-cyclodextrin in ddH2O, IP), (ii) VNLG-152R (5 mg/kg, IP, once daily), (iii) VNLG-152 (10 mg/kg, IP, once daily) and (iv) VNLG-152 (20 mg/kg, IP, once daily) 5 days/week for 29 days. Tumors were measured twice weekly with calipers and tumor volume was calculated by the formula: […] (mm^3). Animals were also weighed weekly and monitored for general health status and signs of possible toxicity due to treatments. Mice were sacrificed after the indicated periods of treatment and tumors and organs excised. Tumors were divided and either flash frozen in liquid nitrogen or placed in 10% buffered formalin for western blot analysis, immunohistochemistry (IHC), and hematoxylin and eosin (H & E) staining. It is important to state here that the control was part of a large study with our other retinamides whose data has already been reported.
Western blotting of tumor tissue lysates was performed according to standard protocol. Briefly, 30–50 μg protein per lysate was denatured with 2× sample buffer and resolved on 12 or 16% Tris–glycine gels by sodium dodecyl sulfate–polyacrylamide gel electrophoresis. Separated proteins were transferred onto nitrocellulose membrane by western blotting, and membrane was blocked for 1 h in blocking buffer and then incubated with specific primary antibodies (1:1000 dilution), followed by peroxidase-conjugated appropriate secondary antibody (1:3000 dilution). Finally, proteins were visualized by enhanced chemiluminescence detection and exposure to X-ray film. To confirm equal protein loading, membranes were stripped and re-probed with mouse monoclonal anti-β-actin primary antibody (Sigma).

**Q.** What does the source list for CC1=C(/C=C/C(C)=C/C=C/C(C)=C/C(=O)Nc2ccc(F)cc2)C(C)(C)CCC1n1ccnc1 (racemic) [VNLG-152R, 4-(±)-(1H-imidazol-1-yl)-N-(4-fluorophenyl)-(E)-retinamide]?
**A.** Kd (Mnk1): 6.46 µM; reduction in cell viability (MDA-MB-231 cells; non-transfected MDA-MB-231 cells): ~ 75%; cell viability in cells harboring Mnk1 knockdown (MDA-MB-231 cells; siMnk1-transfected MDA-MB-231 cells): did not show any significant decrease in cell viability; GI50 ([1]; mean over 6 TNBC cell lines, read-out: average GI50): 0.97 µM; GI50 ([1]; range over 6 TNBC cell lines, read-out: range of GI50): 0.62 to 1.86 µM; MTD at 14 days [2]: > 50 mg/kg; tumor growth inhibition (TGI) ([3]; 5 mg/kg/day IP): 91%; tumor growth inhibition (TGI) ([3]; 10 mg/kg/day IP): 97%; increase in the Bax/Bcl-2 ratio vs control ([3]; 20 mg/kg IP, tumor lysates): 470 fold; tumor growth inhibition (TGI) ([3]; 20 mg/kg/day IP): 97%; changes in body weights ([3]; 5, 10, 20 mg/kg IP): no significant changes in body weights were observed; gross organ (liver, lung and kidney) abnormalities ([3]; 5, 10, 20 mg/kg IP, H&E staining): no gross organ (liver, lung and kidney) abnormalities; expression of Mnk1, Mnk2, p-eIF4E, cyclin D1, Bcl-2, Bax and Bad in tumors ([3]; 10 or 20 mg/kg IP, western blot): significant dose-dependent suppressions of Mnk1, Mnk2, p-eIF4E, cyclin D1, Bcl-2, and up-regulation of Bax and Bad
